Measurements reported in ChEMBL document CHEMBL3745599, “The anti-tumor activity and mechanism of alkaloids from Aconitum szechenyianum Gay” (Bioorg Med Chem Lett, 2016).
Calls of active or inactive are those of the source. No cut-off for these calls is given here.

Tests used:
HepG2 = experiment: Antiproliferative activity against human HepG2 cells assessed as cell viability at 100 to 1600 ug/ml after 44 hrs by MTT assay; type: functional, cell-based
A549 [1] = experiment: Antiproliferative activity against human A549 cells assessed as cell viability at 100 to 1600 ug/ml after 44 hrs by MTT assay; type: functional, cell-based
HeLa = experiment: Antiproliferative activity against human HeLa cells assessed as cell viability at 100 to 1600 ug/ml after 44 hrs by MTT assay; type: functional, cell-based
[2] = Cytotoxicity against HEK293A cells assessed as cell viability at 100 to 800 ug/ml after 44 hrs by MTT assay; type: cell-based; settings: human, hek293-a
[3] = Cytotoxicity against HEK293A cells assessed as cell viability at 1600 ug/ml after 44 hrs by MTT assay; type: cell-based; settings: human, hek293-a
A549 [4] = experiment: Induction of apoptosis in human A549 cells assessed as change from fusiform shape to round shape cell at 100 to 800 ug/ml after 24 hrs by inverted phase contrast microscopic analysis; type: functional, cell-based
A549 [5] = experiment: Induction of apoptosis in human A549 cells assessed as cell shrinkage at 100 to 800 ug/ml after 24 hrs by inverted phase contrast microscopic analysis; type: functional, cell-based
A549 [6] = experiment: Induction of apoptosis in human A549 cells assessed as appearance of loosely arranged cells at 100 to 800 ug/ml after 24 hrs by inverted phase contrast microscopic analysis; type: functional, cell-based
A549 [7] = experiment: Induction of apoptosis in human A549 cells assessed as change in cytoplasmic vacuole at 100 to 800 ug/ml after 24 hrs by inverted phase contrast microscopic analysis; type: functional, cell-based
A549 [8] = experiment: Induction of apoptosis in human A549 cells assessed as condensed chromatin at 100 to 800 ug/ml after 24 hrs by Hoechst 33258 staining-based fluorescence microscopic analysis; type: functional, cell-based
A549 [9] = experiment: Induction of apoptosis in human A549 cells assessed as nuclear fragmentation at 100 to 800 ug/ml after 24 hrs by Hoechst 33258 staining-based fluorescence microscopic analysis; type: functional, cell-based
A549 [10] = experiment: Induction of apoptosis in human A549 cells after 24 hrs by inverted phase contrast microscopic analysis; type: functional, cell-based
A549 [11] = experiment: Upregulation of phosphorylated p38 expression in human A549 cells by Western blot analysis; type: functional, cell-based
A549 [12] = experiment: Upregulation of p38 expression in human A549 cells by Western blot analysis; type: functional, cell-based
[13] = biological target: T1, MAP kinase p38 (Homo sapiens) (UniProt O15264+Q15759+Q16539+P53778); experiment: Activation of p38 in human A549 cells assessed as upregulation of DR5 expression by Western blot analysis; type: cell-based
[14] = biological target: T1, MAP kinase p38 (Homo sapiens); experiment: Activation of p38 in human A549 cells assessed as upregulation of TNF-R1 expression by Western blot analysis; type: cell-based
A549 [15] = experiment: Induction of apoptosis in human A549 cells assessed as loss in mitochondrial membrane potential after 24 hrs by JC-1 dye-based fluorescence microscopic analysis; type: functional, cell-based
[16] = biological target: T1, MAP kinase p38 (Homo sapiens); experiment: Activation of p38 in human A549 cells assessed as upregulation of Bax expression by Western blot analysis; type: cell-based
[17] = biological target: T1, MAP kinase p38 (Homo sapiens); experiment: Activation of p38 in human A549 cells assessed as downregulation of Bcl2 expression at 100 to 800 ug/ml by Western blot analysis; type: cell-based
[18] = biological target: T1, MAP kinase p38 (Homo sapiens); experiment: Activation of p38 in human A549 cells assessed as increase in Bax to Bcl2 ratio by Western blot analysis; type: cell-based
[19] = biological target: T1, MAP kinase p38 (Homo sapiens); experiment: Activation of p38 in human A549 cells assessed as downregulation of cytochrome c expression in mitochondria by Western blot analysis
[20] = biological target: T1, MAP kinase p38 (Homo sapiens); experiment: Activation of p38 in human A549 cells assessed as upregulation of cytochrome c expression in cytosol by Western blot analysis; type: cell-based
[21] = biological target: T1, MAP kinase p38 (Homo sapiens); experiment: Activation of p38 in human A549 cells assessed as downregulation of procaspase-8 level by Western blot analysis; type: cell-based
[22] = biological target: T1, MAP kinase p38 (Homo sapiens); experiment: Activation of p38 in human A549 cells assessed as downregulation of procaspase-3 level by Western blot analysis; type: cell-based
[23] = biological target: T1, MAP kinase p38 (Homo sapiens); experiment: Activation of p38 in human A549 cells assessed as upregulation of cleaved caspase-9 level by Western blot analysis; type: cell-based

| Compound | Activity (HepG2) | Activity (A549 [1]) | Activity (HeLa) | Activity [2] | Activity [3] | Activity (A549 [4]) | Activity (A549 [5]) | Activity (A549 [6]) | Activity (A549 [7]) | Activity (A549 [8]) | Activity (A549 [9]) | Activity (A549 [10]) | Activity (A549 [11]) | Activity (A549 [12]) | Activity [13] | Activity [14] | Activity (A549 [15]) | Activity [16] | Activity [17] | Activity [18] | also measured |
| --- | --- | --- | --- | --- | --- | --- | --- | --- | --- | --- | --- | --- | --- | --- | --- | --- | --- | --- | --- | --- | --- |
| CCN1C[C@]2(COC)[C@H](O)C[C@@H](OC)[C@@]34[C@@H]5C[C@@]6(O)[C@H](OC(=O)c7ccccc7)[C@@H]5[C@@](OC(C)=O)([C@@H]([C@H](OC)[C@H]23)[C@H]14)[C@@H](O)[C@@H]6OC | Active | Active | Active | Non-toxic | Toxic | Active | Active | Active | Active | Active | Active | Dose-dependent effect | Dose-dependent effect | Dose-dependent effect | Dose-dependent effect | Dose-dependent effect | Dose-dependent effect | Dose-dependent effect | Active | Dose-dependent effect | Activity [19]: Dose-dependent effect; Activity [20]: Dose-dependent effect; Activity [21]: Dose-dependent effect; Activity [22]: Dose-dependent effect; Activity [23]: Active |
| CCN1C[C@]2(COC)CC[C@H](OC)[C@]34C1[C@H]([C@H](OC)[C@H]23)[C@]1(OC(C)=O)[C@H]2[C@@H](OC(=O)c3ccccc3)[C@](O)(C[C@H]24)[C@@H](OC)[C@@H]1O | Active | Active | Active | Non-toxic | Toxic | Active | Active | Active | Active | Active | Active | Dose-dependent effect | Dose-dependent effect | Dose-dependent effect | Dose-dependent effect | Dose-dependent effect | Dose-dependent effect | Dose-dependent effect | Active | Dose-dependent effect | Activity [19]: Dose-dependent effect; Activity [20]: Dose-dependent effect; Activity [21]: Dose-dependent effect; Activity [22]: Dose-dependent effect; Activity [23]: Active |
| CCN1C[C@@]2(COC)[C@H]3[C@@H](OC)[C@H]4C1[C@]3([C@@H](OC)C[C@H]2OC(C)=O)[C@@H]1C[C@@]2(O)[C@H](OC(=O)c3ccccc3)[C@@H]1[C@]4(OC(C)=O)[C@@H](O)[C@@H]2OC | Active | Active | Active | Non-toxic | Toxic | Active | Active | Active | Active | Active | Active | Dose-dependent effect | Dose-dependent effect | Dose-dependent effect | Dose-dependent effect | Dose-dependent effect | Dose-dependent effect | Dose-dependent effect | Active | Dose-dependent effect | Activity [19]: Dose-dependent effect; Activity [20]: Dose-dependent effect; Activity [21]: Dose-dependent effect; Activity [22]: Dose-dependent effect; Activity [23]: Active |
| C=C1[C@H]2C[C@@]3([C@@H]1O)[C@@H](CC2=O)[C@@]12C4[C@@H]3C[C@@H]1[C@@](C)(CC[C@@H]2O)CN4CC | Active | Active | Active | Non-toxic | Toxic | Active | Active | Active | Active | Active | Active | Dose-dependent effect | Dose-dependent effect | Dose-dependent effect | Dose-dependent effect | Dose-dependent effect | Dose-dependent effect | Dose-dependent effect | Active | Dose-dependent effect | Activity [19]: Dose-dependent effect; Activity [20]: Dose-dependent effect; Activity [21]: Dose-dependent effect; Activity [22]: Dose-dependent effect; Activity [23]: Active |
